Data taken from ChEMBL document CHEMBL3045205, “Synthesis and Fungicidal Activities of [2-(2, 5-Dimethylphenoxymethyl)--methoxyiminobenzyl]-isoxazole Derivatives” (J Pestic Sci, 1999).

Experiments:
Assay type in all cases: functional
Podosphaera fuliginea [1] = experiment: Fungicidal activity against Podosphaera fuliginea inoculated on cucumber plants pre-treated with compound 24 hr before fungal inoculation assessed as inhibition of cucumber powdery mildew disease at 7.8 ppm measured after 10 days under greenhouse conditions relative to untreated control
[2] = test system: Blumeria graminis f. sp. tritici; experiment: Fungicidal activity against Blumeria graminis f. sp. tritici inoculated on wheat seedlings pre-treated with compound 24 hr before fungal inoculation assessed as inhibition of wheat powdery mildew disease at 7.8 ppm measured after 10 days under greenhouse conditions relative to untreated control
[3] = test system: Blumeria graminis f. sp. tritici; experiment: Fungicidal activity against Blumeria graminis f. sp. tritici inoculated on wheat seedlings treated with compound 24 hr after fungal inoculation assessed as inhibition of wheat powdery mildew disease at 7.8 ppm measured after 10 days under greenhouse conditions relative to untreated control
[4] = test system: Blumeria graminis f. sp. tritici; experiment: Fungicidal activity against Blumeria graminis f. sp. tritici inoculated on wheat seedlings pre-treated with compound 24 hr before fungal inoculation assessed as inhibition of wheat powdery mildew disease at 31.3 ppm measured after 10 days under greenhouse conditions relative to untreated control
Podosphaera fuliginea [5] = experiment: Fungicidal activity against Podosphaera fuliginea inoculated on cucumber plants treated with compound 24 hr after fungal inoculation assessed as inhibition of cucumber powdery mildew disease at 31.3 ppm measured after 10 days under greenhouse conditions relative to untreated control
Podosphaera fuliginea [6] = experiment: Fungicidal activity against Podosphaera fuliginea inoculated on cucumber plants pre-treated with compound 24 hr before fungal inoculation assessed as inhibition of cucumber powdery mildew disease at 31.3 ppm measured after 10 days under greenhouse conditions relative to untreated control
Botrytis cinerea [7] = experiment: Fungicidal activity against Botryotinia fuckeliana inoculated on cucumber leaves treated with compound 24 hr after fungal inoculation assessed as inhibition of cucumber gray mold disease at 31.3 ppm measured after 3 days under greenhouse conditions relative to untreated control
Puccinia coronata [8] = experiment: Fungicidal activity against Puccinia coronata inoculated in oat leaves pre-treated with compound 24 hr before fungal inoculation assessed as inhibition of oat crown rust disease at 31.3 ppm measured after 9 days under greenhouse conditions relative to untreated control
Puccinia coronata [9] = experiment: Fungicidal activity against Puccinia coronata inoculated in oat leaves treated with compound 24 hr after fungal inoculation assessed as inhibition of oat crown rust disease at 7.8 ppm measured after 9 days under greenhouse conditions relative to untreated control
Puccinia coronata [10] = experiment: Fungicidal activity against Puccinia coronata inoculated in oat leaves pre-treated with compound 24 hr before fungal inoculation assessed as inhibition of oat crown rust disease at 7.8 ppm measured after 9 days under greenhouse conditions relative to untreated control
Podosphaera fuliginea [11] = experiment: Fungicidal activity against Podosphaera fuliginea inoculated on cucumber plants treated with compound 24 hr after fungal inoculation assessed as inhibition of cucumber powdery mildew disease at 7.8 ppm measured after 10 days under greenhouse conditions relative to untreated control
Pyricularia oryzae = experiment: Inhibition of oxygen consumption in Magnaporthe oryzae submitochondrial particles using NADH substrate
Puccinia coronata [12] = experiment: Fungicidal activity against Puccinia coronata inoculated in oat leaves treated with compound 24 hr after fungal inoculation assessed as inhibition of oat crown rust disease at 31.3 ppm measured after 9 days under greenhouse conditions relative to untreated control
[13] = test system: Blumeria graminis f. sp. tritici; experiment: Fungicidal activity against Blumeria graminis f. sp. tritici inoculated on wheat seedlings treated with compound 24 hr after fungal inoculation assessed as inhibition of wheat powdery mildew disease at 31.3 ppm measured after 10 days under greenhouse conditions relative to untreated control
Botrytis cinerea [14] = experiment: Fungicidal activity against Botryotinia fuckeliana inoculated on cucumber leaves treated with compound 24 hr after fungal inoculation assessed as inhibition of cucumber gray mold disease at 7.8 ppm measured after 3 days under greenhouse conditions relative to untreated control
Botrytis cinerea [15] = experiment: Fungicidal activity against Botryotinia fuckeliana inoculated on cucumber leaves pre-treated with compound 24 hr before fungal inoculation assessed as inhibition of cucumber gray mold disease at 7.8 ppm measured after 3 days under greenhouse conditions relative to untreated control
Botrytis cinerea [16] = experiment: Fungicidal activity against Botryotinia fuckeliana inoculated on cucumber leaves pre-treated with compound 24 hr before fungal inoculation assessed as inhibition of cucumber gray mold disease at 31.3 ppm measured after 3 days under greenhouse conditions relative to untreated control
[17] = test system: Blumeria graminis f. sp. tritici; experiment: Fungicidal activity against Blumeria graminis f. sp. tritici inoculated on wheat seedlings pre-treated with compound 24 hr before fungal inoculation assessed as inhibition of wheat powdery mildew disease at 125 ppm measured after 10 days under greenhouse conditions relative to untreated control
Podosphaera fuliginea [18] = experiment: Fungicidal activity against Podosphaera fuliginea inoculated on cucumber plants pre-treated with compound 24 hr before fungal inoculation assessed as inhibition of cucumber powdery mildew disease at 500 ppm measured after 10 days under greenhouse conditions relative to untreated control
[19] = test system: Blumeria graminis f. sp. tritici; experiment: Fungicidal activity against Blumeria graminis f. sp. tritici inoculated on wheat seedlings pre-treated with compound 24 hr before fungal inoculation assessed as inhibition of wheat powdery mildew disease at 500 ppm measured after 10 days under greenhouse conditions relative to untreated control

CON=C(c1ccon1)c1ccccc1COc1cc(C)ccc1C
inhibition at 7.8 ppm (Podosphaera fuliginea [1]): 90%
inhibition at 7.8 ppm [2]: 90%

CNC(=O)/C(=N/OC)c1ccccc1Oc1cc(C)ccc1C
inhibition at 7.8 ppm [3]: 97%
inhibition at 7.8 ppm (Podosphaera fuliginea [1]): 100%
inhibition at 31.3 ppm [4]: 100%
inhibition at 31.3 ppm (Podosphaera fuliginea [5]): 100%
inhibition at 31.3 ppm (Podosphaera fuliginea [6]): 100%
inhibition at 31.3 ppm (Botrytis cinerea [7]): 50%
inhibition at 31.3 ppm (Puccinia coronata [8]): 100%
inhibition at 7.8 ppm (Puccinia coronata [9]): 100%
inhibition at 7.8 ppm (Puccinia coronata [10]): 100%
inhibition at 7.8 ppm (Podosphaera fuliginea [11]): 100%
IC50 (Pyricularia oryzae): 18 nM
inhibition at 31.3 ppm (Puccinia coronata [12]): 100%
inhibition at 31.3 ppm [13]: 97%
inhibition at 7.8 ppm [2]: 100%
inhibition at 7.8 ppm (Botrytis cinerea [14]): 40%
inhibition at 7.8 ppm (Botrytis cinerea [15]): 40%
inhibition at 31.3 ppm (Botrytis cinerea [16]): 50%

CON=C(C1=NOCC1)c1ccccc1COc1cc(C)ccc1C
inhibition at 7.8 ppm (Podosphaera fuliginea [1]): 90%
inhibition at 125 ppm [17]: 90%

CO/N=C(\c1ccon1)c1ccccc1COc1cc(C)ccc1C
inhibition at 31.3 ppm (Podosphaera fuliginea [6]): 90%
inhibition at 7.8 ppm [2]: 90%

CO/N=C(\c1ccno1)c1ccccc1COc1cc(C)ccc1C
inhibition at 500 ppm (Podosphaera fuliginea [18]): 90%
inhibition at 500 ppm [19]: 90%

CON=C(c1cc(C)on1)c1ccccc1COc1cc(C)ccc1C
inhibition at 7.8 ppm (Podosphaera fuliginea [1]): 90%
inhibition at 31.3 ppm [4]: 90%

CO/N=C(\c1cc(C)no1)c1ccccc1COc1cc(C)ccc1C
inhibition at 7.8 ppm [3]: 70%
inhibition at 7.8 ppm (Podosphaera fuliginea [1]): 100%
inhibition at 31.3 ppm [4]: 97%
inhibition at 31.3 ppm (Podosphaera fuliginea [5]): 100%
inhibition at 31.3 ppm (Podosphaera fuliginea [6]): 100%
inhibition at 31.3 ppm (Botrytis cinerea [7]): 20%
inhibition at 31.3 ppm (Puccinia coronata [8]): 97%
inhibition at 7.8 ppm (Puccinia coronata [9]): 97%
inhibition at 7.8 ppm (Puccinia coronata [10]): 90%
inhibition at 7.8 ppm (Podosphaera fuliginea [11]): 100%
IC50 (Pyricularia oryzae): 46 nM
inhibition at 31.3 ppm (Puccinia coronata [12]): 100%
inhibition at 31.3 ppm [13]: 97%
inhibition at 7.8 ppm [2]: 97%
inhibition at 7.8 ppm (Botrytis cinerea [14]): 0%
inhibition at 7.8 ppm (Botrytis cinerea [15]): 10%
inhibition at 31.3 ppm (Botrytis cinerea [16]): 30%

CO/N=C(/C1=NOCC1)c1ccccc1COc1cc(C)ccc1C
inhibition at 7.8 ppm [3]: 70%
inhibition at 7.8 ppm (Podosphaera fuliginea [1]): 90%
inhibition at 31.3 ppm [4]: 90%
inhibition at 31.3 ppm (Podosphaera fuliginea [5]): 100%
inhibition at 31.3 ppm (Podosphaera fuliginea [6]): 100%
inhibition at 31.3 ppm (Botrytis cinerea [7]): 20%
inhibition at 31.3 ppm (Puccinia coronata [8]): 90%
inhibition at 7.8 ppm (Puccinia coronata [9]): 0%
inhibition at 7.8 ppm (Puccinia coronata [10]): 30%
inhibition at 7.8 ppm (Podosphaera fuliginea [11]): 100%
inhibition at 31.3 ppm (Puccinia coronata [12]): 50%
inhibition at 31.3 ppm [13]: 97%
inhibition at 7.8 ppm [2]: 90%
inhibition at 7.8 ppm (Botrytis cinerea [14]): 0%
inhibition at 7.8 ppm (Botrytis cinerea [15]): 0%
inhibition at 31.3 ppm (Botrytis cinerea [16]): 20%

CO/N=C(/C1=NOC(C)C1)c1ccccc1COc1cc(C)ccc1C (configuration not stated)
inhibition at 31.3 ppm (Podosphaera fuliginea [6]): 90%
inhibition at 500 ppm [19]: 90%

CO/N=C(/C1=NOC(C)(C)C1)c1ccccc1COc1cc(C)ccc1C
inhibition at 500 ppm (Podosphaera fuliginea [18]): < 90%
inhibition at 500 ppm [19]: < 90%

CO/N=C(\c1ccccc1COc1cc(C)ccc1C)C1CC(C)=NO1 (configuration not stated)
inhibition at 31.3 ppm (Podosphaera fuliginea [6]): 90%
inhibition at 500 ppm [19]: < 90%

CO/N=C(/c1ccon1)c1ccccc1COc1cc(C)ccc1C
inhibition at 7.8 ppm [3]: 90%
inhibition at 7.8 ppm (Podosphaera fuliginea [1]): 100%
inhibition at 31.3 ppm [4]: 97%
inhibition at 31.3 ppm (Podosphaera fuliginea [5]): 100%
inhibition at 31.3 ppm (Podosphaera fuliginea [6]): 100%
inhibition at 31.3 ppm (Botrytis cinerea [7]): 30%
inhibition at 31.3 ppm (Puccinia coronata [8]): 97%
inhibition at 7.8 ppm (Puccinia coronata [9]): 30%
inhibition at 7.8 ppm (Puccinia coronata [10]): 90%
inhibition at 7.8 ppm (Podosphaera fuliginea [11]): 100%
IC50 (Pyricularia oryzae): 103 nM
inhibition at 31.3 ppm (Puccinia coronata [12]): 70%
inhibition at 31.3 ppm [13]: 97%
inhibition at 7.8 ppm [2]: 97%
inhibition at 7.8 ppm (Botrytis cinerea [14]): 30%
inhibition at 7.8 ppm (Botrytis cinerea [15]): 20%
inhibition at 31.3 ppm (Botrytis cinerea [16]): 40%

CO/N=C(/c1cc(C)on1)c1ccccc1COc1cc(C)ccc1C
inhibition at 31.3 ppm (Podosphaera fuliginea [6]): 90%
inhibition at 500 ppm [19]: < 90%

CO/N=C(/c1cc(OC)on1)c1ccccc1COc1cc(C)ccc1C
inhibition at 31.3 ppm (Podosphaera fuliginea [6]): 90%
inhibition at 500 ppm [19]: < 90%

CO/N=C(\c1ccccc1COc1cc(C)ccc1C)c1c(C)noc1C
inhibition at 500 ppm (Podosphaera fuliginea [18]): 90%
inhibition at 500 ppm [19]: < 90%

CO/N=C(/c1ccno1)c1ccccc1COc1cc(C)ccc1C
inhibition at 31.3 ppm [4]: 90%
inhibition at 31.3 ppm (Podosphaera fuliginea [6]): 90%

CO/N=C(/c1cc(C)no1)c1ccccc1COc1cc(C)ccc1C
inhibition at 7.8 ppm (Podosphaera fuliginea [1]): 90%
inhibition at 31.3 ppm [4]: 90%

CCc1cc(/C(=N/OC)c2ccccc2COc2cc(C)ccc2C)on1
inhibition at 500 ppm (Podosphaera fuliginea [18]): 90%
inhibition at 500 ppm [19]: < 90%

CO/N=C(\Cc1cc(C)no1)c1ccccc1COc1cc(C)ccc1C
inhibition at 500 ppm (Podosphaera fuliginea [18]): < 90%
inhibition at 500 ppm [19]: < 90%
